By IC50 is commonly meant the point on the concentration scale where inhibition reaches its midpoint.

Where a name gives a salt, the structure may show the parent alone. Bounds are passed on as bounds.

The values that follow come from ChEMBL document CHEMBL4028801, “A multifactorial approach to hepatobiliary transporter assessment enables improved therapeutic compound development” (Toxicol Sci, 2013).

For test [1], the target named is ATP-binding cassette sub-family C member 2 (Homo sapiens, UniProt Q92887). As to the kind of experiment: Inhibition of human MRP2 overexpressed in Sf9 cell membrane vesicles assessed as uptake of [3H]-estradiol-17beta-D-glucuronide in presence of ATP and GSH measured after 20 mins by membrane vesicle transport assay.
Test [2] addresses ATP-binding cassette sub-family C member 3 (Homo sapiens, UniProt O15438). As to the kind of experiment: Inhibition of human MRP3 overexpressed in Sf9 insect cell membrane vesicles assessed as uptake of [3H]-estradiol-17beta-D-glucuronide in presence of ATP and GSH measured after 10 mins by membrane vesicle transport assay. In kind it is ADME, cell-based.
In test [3] the target is T1, ATP-binding cassette sub-family C member 4 (Homo sapiens, UniProt O15439).
T1 sequence (O15439 whole entry): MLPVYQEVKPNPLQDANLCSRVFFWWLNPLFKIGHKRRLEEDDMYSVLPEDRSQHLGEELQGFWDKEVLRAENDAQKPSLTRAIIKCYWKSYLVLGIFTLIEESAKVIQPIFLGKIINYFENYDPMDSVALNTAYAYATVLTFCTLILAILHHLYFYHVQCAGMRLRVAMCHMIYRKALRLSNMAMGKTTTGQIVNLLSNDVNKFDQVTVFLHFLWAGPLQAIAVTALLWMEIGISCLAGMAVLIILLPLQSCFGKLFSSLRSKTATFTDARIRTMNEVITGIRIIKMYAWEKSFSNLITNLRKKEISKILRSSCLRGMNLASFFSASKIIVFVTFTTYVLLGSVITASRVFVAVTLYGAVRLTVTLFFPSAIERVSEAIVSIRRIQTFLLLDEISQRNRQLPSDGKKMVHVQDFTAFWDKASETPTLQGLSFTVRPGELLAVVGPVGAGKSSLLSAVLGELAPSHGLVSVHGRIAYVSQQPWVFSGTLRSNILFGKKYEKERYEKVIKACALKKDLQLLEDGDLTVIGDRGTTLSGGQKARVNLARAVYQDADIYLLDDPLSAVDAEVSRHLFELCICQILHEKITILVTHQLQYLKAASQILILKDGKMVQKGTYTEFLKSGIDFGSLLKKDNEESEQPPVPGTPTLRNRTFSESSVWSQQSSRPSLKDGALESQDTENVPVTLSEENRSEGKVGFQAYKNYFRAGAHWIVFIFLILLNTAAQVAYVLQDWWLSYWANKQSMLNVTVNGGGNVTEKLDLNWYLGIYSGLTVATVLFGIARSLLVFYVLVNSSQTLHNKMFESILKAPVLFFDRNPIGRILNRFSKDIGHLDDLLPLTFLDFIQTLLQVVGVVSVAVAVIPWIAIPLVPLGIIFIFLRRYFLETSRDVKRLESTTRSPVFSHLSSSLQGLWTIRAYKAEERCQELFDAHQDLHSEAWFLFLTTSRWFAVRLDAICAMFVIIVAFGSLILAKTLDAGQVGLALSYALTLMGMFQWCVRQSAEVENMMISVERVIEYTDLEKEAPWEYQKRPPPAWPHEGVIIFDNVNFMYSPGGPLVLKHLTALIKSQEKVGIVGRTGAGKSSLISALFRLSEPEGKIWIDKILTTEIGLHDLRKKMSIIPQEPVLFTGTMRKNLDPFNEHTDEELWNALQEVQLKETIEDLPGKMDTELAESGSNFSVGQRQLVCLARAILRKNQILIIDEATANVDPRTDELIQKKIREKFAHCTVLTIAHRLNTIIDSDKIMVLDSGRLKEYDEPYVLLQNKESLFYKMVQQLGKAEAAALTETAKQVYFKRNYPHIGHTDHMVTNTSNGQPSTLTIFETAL
The test can be described thus: Inhibition of human MRP4 overexpressed in Sf9 cell membrane vesicles assessed as uptake of [3H]-estradiol-17beta-D-glucuronide in presence of ATP and GSH measured after 20 mins by membrane vesicle transport assay. In kind it is ADME, cell-based.

ATP-binding cassette sub-family C member 2, sequence (Q92887 whole entry): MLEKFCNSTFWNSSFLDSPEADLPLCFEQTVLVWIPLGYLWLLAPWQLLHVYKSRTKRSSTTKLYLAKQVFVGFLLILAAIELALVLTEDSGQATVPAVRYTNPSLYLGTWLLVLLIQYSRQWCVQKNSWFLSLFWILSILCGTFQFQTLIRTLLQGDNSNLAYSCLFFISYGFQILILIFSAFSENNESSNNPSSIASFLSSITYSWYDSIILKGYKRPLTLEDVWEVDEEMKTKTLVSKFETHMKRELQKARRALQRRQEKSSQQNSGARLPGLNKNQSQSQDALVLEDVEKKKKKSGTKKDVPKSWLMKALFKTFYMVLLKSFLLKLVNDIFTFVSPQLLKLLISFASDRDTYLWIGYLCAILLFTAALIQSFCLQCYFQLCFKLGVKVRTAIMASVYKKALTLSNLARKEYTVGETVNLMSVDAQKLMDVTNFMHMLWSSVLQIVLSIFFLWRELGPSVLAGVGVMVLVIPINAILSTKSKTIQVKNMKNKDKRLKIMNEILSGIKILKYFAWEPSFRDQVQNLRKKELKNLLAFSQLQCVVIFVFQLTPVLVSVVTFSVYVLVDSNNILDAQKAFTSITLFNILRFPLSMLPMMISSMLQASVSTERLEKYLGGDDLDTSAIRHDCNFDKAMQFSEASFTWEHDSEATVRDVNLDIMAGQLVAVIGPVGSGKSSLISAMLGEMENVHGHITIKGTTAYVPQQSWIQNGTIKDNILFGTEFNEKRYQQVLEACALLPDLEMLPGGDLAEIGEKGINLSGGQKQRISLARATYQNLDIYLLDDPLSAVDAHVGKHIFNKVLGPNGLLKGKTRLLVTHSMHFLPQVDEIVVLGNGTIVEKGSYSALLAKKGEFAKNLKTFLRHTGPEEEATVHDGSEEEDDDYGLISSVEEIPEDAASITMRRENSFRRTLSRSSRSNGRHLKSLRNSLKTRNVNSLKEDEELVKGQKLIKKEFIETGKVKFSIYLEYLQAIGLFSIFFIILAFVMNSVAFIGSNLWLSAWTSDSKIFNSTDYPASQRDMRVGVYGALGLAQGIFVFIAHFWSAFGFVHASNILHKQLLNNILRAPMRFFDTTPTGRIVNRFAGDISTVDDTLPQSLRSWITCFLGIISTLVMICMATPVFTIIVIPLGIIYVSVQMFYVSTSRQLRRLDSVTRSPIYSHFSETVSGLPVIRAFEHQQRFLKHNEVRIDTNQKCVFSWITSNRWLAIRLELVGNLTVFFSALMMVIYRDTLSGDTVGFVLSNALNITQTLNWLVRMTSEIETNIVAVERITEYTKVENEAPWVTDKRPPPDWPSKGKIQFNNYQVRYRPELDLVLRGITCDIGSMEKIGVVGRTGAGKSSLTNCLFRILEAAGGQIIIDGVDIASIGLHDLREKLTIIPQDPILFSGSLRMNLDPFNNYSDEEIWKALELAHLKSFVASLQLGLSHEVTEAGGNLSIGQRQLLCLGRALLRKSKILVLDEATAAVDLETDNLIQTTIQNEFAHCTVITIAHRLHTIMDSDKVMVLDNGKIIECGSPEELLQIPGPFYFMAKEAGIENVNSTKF
ATP-binding cassette sub-family C member 3, sequence (O15438 whole entry): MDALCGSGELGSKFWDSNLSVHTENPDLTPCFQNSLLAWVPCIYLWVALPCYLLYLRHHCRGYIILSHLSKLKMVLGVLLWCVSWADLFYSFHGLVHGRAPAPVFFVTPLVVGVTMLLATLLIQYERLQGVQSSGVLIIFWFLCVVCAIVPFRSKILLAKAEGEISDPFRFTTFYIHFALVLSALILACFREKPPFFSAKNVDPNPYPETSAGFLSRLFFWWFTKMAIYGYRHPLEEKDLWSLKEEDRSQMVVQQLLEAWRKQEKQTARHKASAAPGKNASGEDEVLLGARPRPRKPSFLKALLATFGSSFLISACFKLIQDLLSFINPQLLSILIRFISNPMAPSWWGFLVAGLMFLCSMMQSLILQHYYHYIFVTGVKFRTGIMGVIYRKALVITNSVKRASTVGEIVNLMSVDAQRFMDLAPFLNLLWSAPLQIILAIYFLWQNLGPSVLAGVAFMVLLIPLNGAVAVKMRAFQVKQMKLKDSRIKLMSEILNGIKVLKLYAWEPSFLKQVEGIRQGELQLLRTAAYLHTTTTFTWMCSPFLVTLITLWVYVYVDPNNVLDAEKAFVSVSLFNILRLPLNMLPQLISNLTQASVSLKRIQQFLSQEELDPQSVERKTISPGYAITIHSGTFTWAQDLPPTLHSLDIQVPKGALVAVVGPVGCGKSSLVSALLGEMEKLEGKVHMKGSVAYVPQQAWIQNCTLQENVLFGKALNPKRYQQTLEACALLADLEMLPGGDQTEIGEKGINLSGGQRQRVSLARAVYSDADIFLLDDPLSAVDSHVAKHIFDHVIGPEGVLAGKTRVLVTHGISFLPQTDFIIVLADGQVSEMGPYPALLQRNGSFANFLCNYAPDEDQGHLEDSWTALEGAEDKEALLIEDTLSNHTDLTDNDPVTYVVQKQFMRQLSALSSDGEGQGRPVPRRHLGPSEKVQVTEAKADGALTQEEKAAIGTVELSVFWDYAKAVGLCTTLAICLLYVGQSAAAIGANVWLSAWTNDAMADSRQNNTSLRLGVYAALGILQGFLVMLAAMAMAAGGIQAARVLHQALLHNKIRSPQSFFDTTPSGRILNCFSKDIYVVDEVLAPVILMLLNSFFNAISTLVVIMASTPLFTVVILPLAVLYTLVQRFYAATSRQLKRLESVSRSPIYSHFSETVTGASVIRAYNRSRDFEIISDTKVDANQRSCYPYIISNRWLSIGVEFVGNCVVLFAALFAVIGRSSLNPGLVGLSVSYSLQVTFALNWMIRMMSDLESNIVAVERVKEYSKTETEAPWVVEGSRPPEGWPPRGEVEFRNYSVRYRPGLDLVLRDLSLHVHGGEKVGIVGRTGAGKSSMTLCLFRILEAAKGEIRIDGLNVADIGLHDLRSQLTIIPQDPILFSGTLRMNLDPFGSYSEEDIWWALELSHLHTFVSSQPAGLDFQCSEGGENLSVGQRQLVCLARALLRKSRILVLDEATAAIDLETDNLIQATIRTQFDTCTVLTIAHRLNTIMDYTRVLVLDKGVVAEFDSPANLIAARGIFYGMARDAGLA

Regarding `COc1ccc([C@@H]2Sc3ccccc3N(CCN(C)C)C(=O)[C@@H]2OC(C)=O)cc1` [DILTIAZEM], the IC50 in test [1], in test [2] and in test [3] was > 133 µM in each case.

In the case of `N#C[C@@H]1C[C@@H]2C[C@@H]2N1C(=O)[C@@H](N)C12CC3CC(CC(O)(C3)C1)C2` [SAXAGLIPTIN HYDROCHLORIDE], the IC50 in test [1], in test [2] and in test [3] was > 133 µM each time.

With `O=C1CN(/N=C/c2ccc([N+](=O)[O-])o2)C(=O)N1` [NITROFURANTOIN], the IC50 in test [1] is > 133 µM; in test [2], > 133 µM; in test [3], 20.9 µM.

As for `NC(=O)NO` [HYDROXYUREA], the IC50 in test [1], in test [2] and in test [3] was > 133 µM each time.

In the case of `Cc1ccc(Nc2c(F)cccc2Cl)c(CC(=O)O)c1` [LUMIRACOXIB], the IC50 in test [1], in test [2] and in test [3] was > 133 µM throughout.

Take `CCN(CC)CCNC(=O)c1ccc(N)cc1` [PROCAINAMIDE]: the IC50 in test [1], in test [2] and in test [3] was > 133 µM each time.

Regarding `CCN(CC)CCNC(=O)c1c(C)[nH]c(/C=C2\C(=O)Nc3ccc(F)cc32)c1C`, the IC50 in test [1], in test [2] and in test [3] was > 133 µM in each case.

Turning to `Nc1ccn([C@@H]2CS[C@H](CO)O2)c(=O)n1` [LAMIVUDINE], the IC50 in test [1], in test [2] and in test [3] was > 133 µM each time.

As to `C[C@@H](c1ncncc1F)[C@](O)(Cn1cncn1)c1ccc(F)cc1F` [VORICONAZOLE], the IC50 in test [1], in test [2] and in test [3] was > 133 µM throughout.

For `CN1CCN(CCCN2c3ccccc3Sc3ccc(Cl)cc32)CC1` [PROCHLORPERAZINE], the IC50 in test [1], in test [2] and in test [3] was > 133 µM in each case.

As for `CC(C)(C)NCC(O)c1ccc(O)c(CO)c1` (configuration not stated) [ALBUTEROL], the IC50 in test [1], in test [2] and in test [3] was > 133 µM each time.

Take `CCn1cc(C(=O)O)c(=O)c2cc(F)c(N3CCNCC3)cc21` [NORFLOXACIN]: the IC50 in test [1], in test [2] and in test [3] was > 133 µM in each case.

Turning to `COCCOC(=O)C1=C(C)NC(C)=C(C(=O)OC(C)C)C1c1cccc([N+](=O)[O-])c1` (configuration not stated) [NIMODIPINE], the IC50 in test [1], in test [2] and in test [3] was > 133 µM throughout.

With `Cc1ccc(O)c([C@H](CCN(C(C)C)C(C)C)c2ccccc2)c1` [TOLTERODINE TARTRATE], the IC50 in test [1], in test [2] and in test [3] was > 133 µM throughout.

Turning to `CN(C)CCC(c1ccc(Br)cc1)c1ccccn1` (configuration not stated) [BROMPHENIRAMINE MALEATE], the IC50 in test [1], in test [2] and in test [3] was > 133 µM in each case.

`COC[C@H]1OC(=O)c2coc3c2[C@@]1(C)C1=C(C3=O)[C@@H]2CCC(=O)[C@@]2(C)C[C@H]1OC(C)=O` [WORTMANNIN]: the IC50 in test [1] is 46.1 µM; in test [2], > 133 µM; in test [3], 63.2 µM.

Take `O=C1CCc2ccc(OCCCCN3CCN(c4cccc(Cl)c4Cl)CC3)cc2N1` [ARIPIPRAZOLE]: the half-maximal inhibitory concentration (IC50) in test [1], in test [2] and in test [3] was > 133 µM throughout.

For the compound `COc1ccc(CCN(C)CCCC(C#N)(c2ccc(OC)c(OC)c2)C(C)C)cc1OC` (configuration not stated), the IC50 in test [1] and in test [2] was > 133 µM in each case.

`CC1(COc2ccc(CC3SC(=O)NC3=O)cc2)CCCCC1` (configuration not stated) [CIGLITAZONE]: the IC50 in test [1], in test [2] and in test [3] was > 133 µM in each case.

For the compound `CC/C(=C(\c1ccccc1)c1ccc(OCCN(C)C)cc1)c1ccccc1` [TAMOXIFEN], the IC50 in test [1], in test [2] and in test [3] was > 133 µM throughout.

With `C[C@]12C=CC(=O)C=C1CC[C@@H]1[C@@H]2[C@@H](O)C[C@@]2(C)[C@H]1CC[C@]2(O)C(=O)CO` [PREDNISOLONE], the IC50 in test [1], in test [2] and in test [3] was > 133 µM in each case.

Consider `CC(C)NCC(O)COc1cccc2[nH]ccc12` (configuration not stated) [PINDOLOL], for which the IC50 in test [1], in test [2] and in test [3] was > 133 µM in each case.

`CN[C@@H]1C[C@H]2O[C@@](C)([C@@H]1OC)n1c3ccccc3c3c4c(c5c6ccccc6n2c5c31)C(=O)NC4` [STAUROSPORINE]: the values for the IC50 in test [1], in test [2] and in test [3] were > 133 µM, > 133 µM and 37.9 µM, respectively.

Regarding `C[C@]12CC[C@@H]3c4ccc(O)cc4CC[C@H]3[C@@H]1CC[C@@H]2O` [ESTRADIOL], the IC50 in test [2] and in test [3] was > 133 µM throughout.

`C[C@H](N[C@@H](CCc1ccccc1)C(=O)O)C(=O)N1CCC[C@H]1C(=O)O` [ENALAPRILAT ANHYDROUS]: the IC50 in test [1], in test [2] and in test [3] was > 133 µM each time.

For the compound `C=C(c1ccc(C(=O)O)cc1)c1cc2c(cc1C)C(C)(C)CCC2(C)C` [BEXAROTENE], the IC50 in test [1], in test [2] and in test [3] was > 133 µM each time.

In the case of `C#C[C@@]1(O)CC[C@H]2[C@@H]3CCC4=CC(=O)CC[C@@H]4[C@H]3CC[C@@]21C`, the half-maximal inhibitory concentration (IC50) in test [1], in test [2] and in test [3] was > 133 µM throughout.

As for `Clc1ccc2c(c1)CCc1cccnc1C2=C1CCNCC1` [DESLORATADINE], the IC50 in test [1], in test [2] and in test [3] was > 133 µM each time.

For `CNCCC(Oc1ccc(C(F)(F)F)cc1)c1ccccc1` (configuration not stated) [FLUOXETINE], the IC50 in test [1], in test [2] and in test [3] was > 133 µM each time.

Turning to `CCS(=O)(=O)CCn1c([N+](=O)[O-])cnc1C` [TINIDAZOLE], the IC50 in test [1], in test [2] and in test [3] was > 133 µM throughout.

`CN(C)CCCN1c2ccccc2CCc2ccccc21` [IMIPRAMINE]: the IC50 in test [1], in test [2] and in test [3] was > 133 µM throughout.

For the compound `CN(C)C(=N)N=C(N)N` [METFORMIN], the IC50 in test [1], in test [2] and in test [3] was > 133 µM in each case.

Regarding `CNC(=C[N+](=O)[O-])NCCSCc1ccc(CN(C)C)o1` [RANITIDINE], the IC50 in test [1], in test [2] and in test [3] was > 133 µM throughout.

Regarding `Nc1ccc(S(=O)(=O)c2ccc(N)cc2)cc1` [DAPSONE], the IC50 in test [1], in test [2] and in test [3] was > 133 µM throughout.

With `COCCc1ccc(OCC(O)CNC(C)C)cc1` (configuration not stated) [METOPROLOL], the IC50 in test [1], in test [2] and in test [3] was > 133 µM each time.

Consider `CO[C@@]1(NC(=O)C2SC(=C(C(N)=O)C(=O)O)S2)C(=O)N2C(C(=O)O)=C(CSc3nnnn3C)CS[C@@H]21` (some centres not stated) [CEFOTETAN], for which the IC50 in test [2] was found to be 79 µM.

For `O=C(N[C@H](CO)[C@H](O)c1ccc([N+](=O)[O-])cc1)C(Cl)Cl` [CHLORAMPHENICOL], the 50% inhibitory concentration (IC50) in test [2] and in test [3] was > 133 µM in each case.

For `O=C(CCCN1CCC(O)(c2ccc(Cl)cc2)CC1)c1ccc(F)cc1` [HALOPERIDOL], the IC50 in test [2] and in test [3] was > 133 µM each time.

As to `O=C(O)CCc1nc(-c2ccccc2)c(-c2ccccc2)o1` [OXAPROZIN], the IC50 in test [1] and in test [2] was > 133 µM throughout.

On to `O=C(O)c1cc(/N=N/c2ccc(S(=O)(=O)Nc3ccccn3)cc2)ccc1O` [SULFASALAZINE], for which the IC50 was 14.6 µM in test [2] and 1.5 µM in test [3].
